Where two headings read alike, the source gives them in different places.
Legend:
Ramos cells = test: Cytotoxicity in Ramos cells; assay type: cell-based; details: detection limit EC50=16 μM, read-out: Ramos Cell EC50
Procedure: (§1) Exemplary compounds described in above Examples were tested for activity against F1F0-ATPase by measuring the ability of the compounds to inhibit ATP synthesis. In addition, the compounds were assessed for cytotoxicity in Ramos cells. Inhibition of F1F0-ATPase activity in synthesizing ATP and cytotoxicity in Ramos cells were measured according to the procedures described in K. M. Johnson et al. Chemistry & Biology 2005, 12, 485-496.

F1F0-ATPase = biological target: T1, F1F0-ATPase (Bos taurus, UniProt P13621); test: Inhibition of F1F0-ATPase activity in synthesizing ATP (ATP synthesis inhibition); assay type: biochemical; details: detection limit IC50=16 μM, read-out: ATP Syn IC50
T1 construct: from tissue
Procedure: as §1

Row | Compound | EC50 (Ramos cells) | IC50 (F1F0-ATPase) | EC50 (Ramos cells; Homo sapiens)
1 | CCn1nc(C)cc1C(=O)/N=C(\Nc1cc(-c2ccc(F)cc2)n[nH]1)NC(C)(C)C [Compound A-53] | < 5 µM | < 5 µM | –
2 | CCn1nc(C)cc1C(=O)/N=C(\Nc1cc(-c2ccc(F)cc2)n[nH]1)NC(C)C [Compound A-54] | < 5 µM | < 5 µM | –
3 | CCn1nc(C)cc1C(=O)N=C(Nc1cc(-c2ccc(F)cc2)n[nH]1)NC(C)COC (stereo not drawn) [Compound A-55] | 5 to 16 µM | 5 to 16 µM | –
4 | CC(C)n1ccc(C(=O)/N=C(\Nc2cc(-c3ccc(F)cc3)n[nH]2)NC(C)(C)C)n1 [Compound A-56] | 5 to 16 µM | < 5 µM | –
5 | CC(C)N/C(=N/C(=O)c1ccn(C(C)C)n1)Nc1cc(-c2ccc(F)cc2)n[nH]1 [Compound A-57] | 5 to 16 µM | 5 to 16 µM | –
6 | CCCn1ccc(C(=O)/N=C(\Nc2cc(-c3ccc(F)cc3)n[nH]2)NC(C)(C)C)n1 [Compound A-58] | < 5 µM | < 5 µM | –
7 | CCCn1ccc(C(=O)N=C(Nc2cc(-c3ccc(F)cc3)n[nH]2)NC(C)C)n1 [Compound A-59] | – | 5 to 16 µM | 5 to 16 µM
8 | CCn1ccc(C(=O)/N=C(\Nc2cc(-c3ccc(F)cc3)n[nH]2)NC(C)(C)C)n1 [Compound A-60] | 5 to 16 µM | < 5 µM | –
9 | CC(C)c1cc(C(=O)/N=C(\Nc2cc(-c3ccc(F)cc3)n[nH]2)NC(C)(C)C)on1 [Compound A-61] | < 5 µM | < 5 µM | –
10 | CCn1ccc(C(=O)/N=C(\Nc2cc(-c3ccc(F)cc3)n[nH]2)NC(C)C)n1 [Compound A-62] | > 16 µM | > 16 µM | –
11 | CC(C)N/C(=N/C(=O)c1cc(C(C)C)no1)Nc1cc(-c2ccc(F)cc2)n[nH]1 [Compound A-63] | 5 to 16 µM | < 5 µM | –
12 | Cc1cc(C(=O)N=C(Nc2cc(-c3ccc(Cl)cc3)n[nH]2)NC(C)C)n(C)n1 [Compound A-64] | – | < 5 µM | 5 to 16 µM
13 | Cc1cc(C(=O)/N=C(\Nc2cc(-c3ccc(Cl)cc3)n[nH]2)NC(C)(C)C)n(C)n1 [Compound A-65] | 5 to 16 µM | < 5 µM | –
14 | Cc1cc(C(=O)/N=C(/NCC(C)C)Nc2cc(-c3ccc(Cl)cc3)n[nH]2)n(C)n1 [Compound A-66] | < 5 µM | < 5 µM | –
15 | COCC(C)NC(=NC(=O)c1cc(C)nn1C)Nc1cc(-c2ccc(Cl)cc2)n[nH]1 (stereo not drawn) [Compound A-67] | – | < 5 µM | 5 to 16 µM
16 | Cc1oncc1C(=O)/N=C(\Nc1cc(-c2ccc(Cl)cc2)n[nH]1)NC(C)(C)C [Compound A-68] | < 5 µM | < 5 µM | –
17 | Cc1oncc1C(=O)/N=C(/NCC(C)C)Nc1cc(-c2ccc(Cl)cc2)n[nH]1 [Compound A-69] | > 16 µM | > 16 µM | –
18 | Cc1oncc1C(=O)N=C(Nc1cc(-c2ccc(Cl)cc2)n[nH]1)NC(C)C [Compound A-70] | – | > 16 µM | > 16 µM
19 | CC(C)N/C(=N/C(=O)c1cc(C(C)(C)C)nn1C)Nc1cc(-c2ccc(Cl)cc2)n[nH]1 [Compound A-71] | < 5 µM | 5 to 16 µM | –
20 | Cn1nc(C(C)(C)C)cc1C(=O)/N=C(\Nc1cc(-c2ccc(Cl)cc2)n[nH]1)NC(C)(C)C [Compound A-72] | < 5 µM | < 5 µM | –
21 | CC(C)CN/C(=N/C(=O)c1cc(C(C)(C)C)nn1C)Nc1cc(-c2ccc(Cl)cc2)n[nH]1 [Compound A-73] | < 5 µM | < 5 µM | –
22 | Cn1nc(C(C)(C)C)cc1C(=O)/N=C(\Nc1cc(-c2ccc(Cl)cc2)n[nH]1)NC1CCCC1 [Compound A-74] | < 5 µM | < 5 µM | –
23 | COCC(C)NC(=NC(=O)c1cnoc1C)Nc1cc(-c2ccc(Cl)cc2)n[nH]1 (stereo not drawn) [Compound A-75] | – | 5 to 16 µM | > 16 µM
24 | COC[C@H](C)N/C(=N/C(=O)c1cc(C(C)(C)C)nn1C)Nc1cc(-c2ccc(Cl)cc2)n[nH]1 [Compound A-76] | < 5 µM | < 5 µM | –
25 | Cc1oncc1C(=O)/N=C(\Nc1cc(-c2cc(F)cc(F)c2)n[nH]1)NC(C)C [Compound A-77] | > 16 µM | 5 to 16 µM | –
26 | Cc1oncc1C(=O)/N=C(\Nc1cc(-c2cc(F)cc(F)c2)n[nH]1)NC1CCCC1 [Compound A-78] | > 16 µM | < 5 µM | –
27 | Cc1oncc1C(=O)/N=C(/NCC(C)C)Nc1cc(-c2cc(F)cc(F)c2)n[nH]1 [Compound A-79] | > 16 µM | > 16 µM | –
28 | COC[C@H](C)N/C(=N/C(=O)c1cnoc1C)Nc1cc(-c2cc(F)cc(F)c2)[nH]n1 [Compound A-80] | > 16 µM | 5 to 16 µM | –
29 | Cc1cc(C(=O)N=C(Nc2cc(-c3cc(F)cc(F)c3)n[nH]2)NC(C)C)n(C)n1 [Compound A-81] | – | < 5 µM | 5 to 16 µM
30 | Cc1cc(C(=O)/N=C(\Nc2cc(-c3cc(F)cc(F)c3)n[nH]2)NC2CCCC2)n(C)n1 [Compound A-82] | 5 to 16 µM | < 5 µM | –
